Measured values as given in article PMC6925736, “Development of a HPLC-MS/MS Method to Determine the 13 Elements of Semen Cuscutae and Application to a Pharmacokinetic Study in Rats” (Evidence-based Complementary and Alternative Medicine : eCAM, 2019).

Legend:
[1] = Pharmacokinetic study in rats after oral administration of Semen Cuscutae extract (HPLC-MS/MS of plasma); format: in vivo, Sprague–Dawley rats; conditions: oral Semen Cuscutae extract 13 g/kg; for AUC: read-out: AUC(0-tn); for plasma concentration after 15 minutes of intragastric administration: LLOQ 1 ng/mL
Procedure: 20 μL of methanol, 20 μL of IS (liquiritin, 200 ng/mL) and 20 μL of formic acid were added to 100 μL of plasma sample and then vortex-mixed. The mixture was extracted with 800 μL of acetonitrile by vortexing for 3 min. After centrifugation at 14000 rpm for 10 min, the supernatant was transferred to a clean glass tube and dried with nitrogen. The residue was reconstituted in 100 μL of methanol and then centrifuged at 14000 rpm for 10 min. 5 μL of supernatant was injected into the LC–MS/MS system for analysis.
Six Sprague–Dawley rats (SPF, 200 ± 10 g, male) were purchased from HFK Laboratory Animal Technology Co., Ltd. The rats were housed in a standard laboratory condition (12 h dark-light cycle; temperature was 25°C ± 2°C and humidity was kept 50 ± 5%) and fed standard dry pellet diet and water for one week for acclimatization. Before the experiments, the rats were in fasting state for 12 h, with free access to water. The Semen Cuscutae extracts were dissolved in 0.5% carboxymethyl cellulose-sodium, prepared into suspension and gavage to the rats at a dose of 13 g/kg. Approximately 200 μL of rat blood samples was collected from the orbital venous plexus at 0, 0.03, 0.08, 0.17, 0.25, 0.5, 1, 2, 4, 6, 8, 10, 12, 24, 36, and 48 h after oral administration into 1.5 mL heparinized centrifuge tube. After centrifugation at 7000 rpm for 10 min immediately, the supernatant was collected into a new centrifuge tube and stored at −70°C until analysis.
Pharmacokinetic parameters (Cmax, t1/2, Tmax, AUC(0-tn), and AUC(0-∞)) were obtained using the software “Drug and Statistics 3.0” (DAS 3.0) (Medical College of Wannan, China).

[2] = Stability of analytes in rat plasma QC samples under processing and storage conditions; format: in vitro ADME; conditions: n = 6; for Measured concentration, room temperature for 4h / Measured concentration, three freeze-thaw / Measured concentration, −70°C for 21 days: rat plasma; for Measured concentration, autosampler for 12h: treated rat plasma sample
Procedure: The stability of the 13 analytes was evaluated by QC samples in different processing and storage conditions, including short-term stability (putting the analytes in ambient temperature for 4 h and storing analytes in autosampler for 12 h after treatment), long-term stability (storing the analytes at −70°C for 21 days) and subjecting analytes to three freeze-thaw cycles. All stability experiments were tested in six parallels with low, middle, and high concentrations.

[3] = male, Sprague-Dawley, rat plasma, n = 6
[4] = rat plasma, n = 6, listed as hyperoside
[5] = male, Sprague-Dawley, rat, plasma, po, 13 g/kg, n = 6
[6] = rat plasma, n = 6, listed as astragalin
[7] = rat plasma, n = 6, listed as isoquercitrin

| AUC(0-inf) [1, 3] [ng·h/mL] | Cmax [1, 3] [ng/mL] | AUC [1, 3] [ng·h/mL] | t 1/2 ([1]; rat plasma, n = 6) [min] | Measured concentration, room temperature for 4h ([2]; spiked 2 ng/mL) [ng/mL] | Measured concentration, three freeze-thaw ([2]; spiked 2 ng/mL) [ng/mL] | Measured concentration, −70°C for 21 days ([2]; spiked 2 ng/mL) [ng/mL] | Measured concentration, room temperature for 4h ([2]; spiked 25 ng/mL) [ng/mL] | Measured concentration, three freeze-thaw ([2]; spiked 25 ng/mL) [ng/mL] | Measured concentration, −70°C for 21 days ([2]; spiked 25 ng/mL) [ng/mL] | Measured concentration, room temperature for 4h ([2]; spiked 250 ng/mL) [ng/mL] | Measured concentration, three freeze-thaw ([2]; spiked 250 ng/mL) [ng/mL] | Measured concentration, −70°C for 21 days ([2]; spiked 250 ng/mL) [ng/mL] | Measured concentration, autosampler for 12h ([2]; spiked 2 ng/mL) [ng/mL] | Measured concentration, autosampler for 12h ([2]; spiked 25 ng/mL) [ng/mL] | Measured concentration, autosampler for 12h ([2]; spiked 250 ng/mL) [ng/mL] | plasma concentration after 15 minutes of intragastric administration ([1]; rat plasma) | Compound | T max ([1]; rat plasma, n = 6) [min] | further results |
| --- | --- | --- | --- | --- | --- | --- | --- | --- | --- | --- | --- | --- | --- | --- | --- | --- | --- | --- | --- |
| 652 ± 292 | 33.7 ± 8.43 | 613 ± 291 | 696 ± 55.2 | 2.1 ± 0.1 | 2.1 ± 0.1 | 2.0 ± 0.1 | 27.9 ± 1.0 | 27.0 ± 1.3 | 26.0 ± 0.6 | 272.5 ± 8.9 | 255.7 ± 3.9 | 250.2 ± 5.1 | 2.2 ± 0.1 | 28.1 ± 0.8 | 262.6 ± 7.4 | – | O=C(O)/C=C/c1ccc(O)c(O)c1 [Caffeic acid] | – | Tmax [1, 5]: 16.8 ± 2.4 min; half-life [1, 5]: > 450 min |
| – | – | – | – | 2.2 ± 0.1 | 2.0 ± 0.1 | 1.9 ± 0.1 | 26.2 ± 0.7 | 27.3 ± 0.6 | 25.6 ± 0.9 | 254.9 ± 11.8 | 253.2 ± 5.0 | 260.0 ± 6.2 | 2.3 ± 0.1 | 26.6 ± 0.7 | 245.3 ± 11.6 | lower than the LLOQ | O=c1c(O)c(-c2ccc(O)c(O)c2)oc2cc(O)cc(O)c12 [Quercetin] | – | – |
| 441 ± 292 | 58.2 ± 28.5 | 370 ± 259 | 27 ± 15.6 | 2.1 ± 0.1 | 2.1 ± 0.1 | 2.0 ± 0.1 | 27.6 ± 1.2 | 27.2 ± 0.8 | 26.1 ± 1.2 | 248.1 ± 4.3 | 258.6 ± 8.5 | 251.5 ± 8.7 | 2.1 ± 0.1 | 27.3 ± 1.0 | 254.6 ± 4.6 | – | O=c1c(O[C@@H]2O[C@H](CO)[C@@H](O)[C@H](O)[C@H]2O)c(-c2ccc(O)cc2)oc2cc(O)cc(O)c12 [Astragalin] | 14.4 ± 5.4 | T max [1, 6]: less than 1 h; t 1/2 [1, 6]: less than 1.5 h |
| – | – | – | – | 2.2 ± 0.1 | 2.0 ± 0.1 | 2.1 ± 0.1 | 26.4 ± 1.2 | 25.7 ± 2.0 | 26.5 ± 1.3 | 249.3 ± 12.8 | 262.2 ± 16.0 | 257.8 ± 8.2 | 2.1 ± 0.2 | 25.0 ± 1.2 | 248.5 ± 4.9 | lower than the LLOQ | O=c1cc(-c2ccc(O)cc2)oc2cc(O)cc(O)c12 [Apigenin] | – | – |
| 257 ± 74.4 | 19.5 ± 9.8 | 172 ± 49.2 | 73.8 ± 15.6 | 2.0 ± 0.1 | 2.0 ± 0.1 | 2.1 ± 0.1 | 27.1 ± 1.3 | 27.1 ± 1.5 | 26.2 ± 0.6 | 259.9 ± 5.5 | 255.0 ± 5.7 | 249.5 ± 7.0 | 2.1 ± 0.1 | 26.9 ± 1.0 | 251.5 ± 5.4 | – | COc1cc(-c2oc3cc(O)cc(O)c3c(=O)c2O[C@@H]2O[C@H](CO)[C@@H](O)[C@H](O)[C@H]2O)ccc1O [Isorhamnetin-3-O-glucoside] | 18 ± 0.6 | half-life [1, 5]: < 90 min; T max ([1]; rat plasma, n = 6, listed as isorhamnetin-3-O-glucoside): less than 1 h |
| – | – | – | – | 2.0 ± 0.1 | 2.0 ± 0.1 | 2.0 ± 0.1 | 27.0 ± 1.8 | 26.2 ± 0.3 | 25.5 ± 1.2 | 260.4 ± 3.3 | 248.9 ± 6.5 | 244.4 ± 7.4 | 2.1 ± 0.1 | 27.3 ± 0.6 | 251.2 ± 9.7 | lower than the LLOQ | O=C(/C=C/c1ccc(O)c(O)c1)O[C@H]1[C@H](O)C[C@](O)(C(=O)O)C[C@H]1O [Cryptochlorogenic acid] | – | – |

| Compound | AUC(0-inf) [1, 3] [ng·h/mL] | Cmax [1, 3] [ng/mL] | AUC [1, 3] [ng·h/mL] | t 1/2 ([1]; rat plasma, n = 6) [min] | Measured concentration, room temperature for 4h ([2]; spiked 2 ng/mL) [ng/mL] | Measured concentration, three freeze-thaw ([2]; spiked 2 ng/mL) [ng/mL] | Measured concentration, −70°C for 21 days ([2]; spiked 2 ng/mL) [ng/mL] | Measured concentration, room temperature for 4h ([2]; spiked 25 ng/mL) [ng/mL] | Measured concentration, three freeze-thaw ([2]; spiked 25 ng/mL) [ng/mL] | Measured concentration, −70°C for 21 days ([2]; spiked 25 ng/mL) [ng/mL] | Measured concentration, room temperature for 4h ([2]; spiked 250 ng/mL) [ng/mL] | Measured concentration, three freeze-thaw ([2]; spiked 250 ng/mL) [ng/mL] | Measured concentration, −70°C for 21 days ([2]; spiked 250 ng/mL) [ng/mL] | Measured concentration, autosampler for 12h ([2]; spiked 2 ng/mL) [ng/mL] | Measured concentration, autosampler for 12h ([2]; spiked 25 ng/mL) [ng/mL] | Measured concentration, autosampler for 12h ([2]; spiked 250 ng/mL) [ng/mL] | plasma concentration after 15 minutes of intragastric administration ([1]; rat plasma) | T max ([1]; rat plasma, n = 6) [min] | further results |
| --- | --- | --- | --- | --- | --- | --- | --- | --- | --- | --- | --- | --- | --- | --- | --- | --- | --- | --- | --- |
| O=c1c(O[C@@H]2O[C@H](CO)[C@H](O)[C@H](O)[C@H]2O)c(-c2ccc(O)c(O)c2)oc2cc(O)cc(O)c12 [Hyperoside] | 754 ± 424 | 29.8 ± 12.8 | 684 ± 407 | 21.6 ± 13.8 | 2.0 ± 0.1 | 2.1 ± 0.1 | 1.9 ± 0.1 | 23.0 ± 1.2 | 26.2 ± 1.5 | 26.4 ± 1.8 | 244.4 ± 14.3 | 254.7 ± 9.7 | 256.4 ± 15.8 | 1.8 ± 0.1 | 23.6 ± 0.7 | 230.2 ± 13.1 | – | 10.2 ± 4.2 | T max [1, 4]: less than 1 h; t 1/2 [1, 4]: less than 1.5 h |
| C[C@@H]1O[C@@H](Oc2c(-c3ccc(O)c(O)c3)oc3cc(O)cc(O)c3c2=O)[C@H](O)[C@H](O)[C@H]1O [Quercitrin] | – | – | – | – | 2.1 ± 0.1 | 2.3 ± 0.1 | 2.0 ± 0.1 | 26.3 ± 0.7 | 26.9 ± 1.5 | 26.5 ± 0.5 | 252.5 ± 9.1 | 261.4 ± 10.3 | 247.9 ± 5.3 | 2.1 ± 0.1 | 26.4 ± 0.9 | 253.1 ± 4.7 | lower than the LLOQ | – | – |
| Isoquercitrin | – | – | – | 29.4 ± 3 | 1.8 ± 0.2 | 2.1 ± 0.1 | 1.9 ± 0.1 | 22.8 ± 1.4 | 26.2 ± 1.8 | 25.9 ± 1.8 | 247.2 ± 14.7 | 248.9 ± 5.1 | 263.6 ± 10.2 | 1.9 ± 0.1 | 24.0 ± 0.5 | 238.3 ± 7.2 | – | 12.6 ± 4.2 | AUC(0-tn) ([1]; rat plasma, n = 6): 838.79 ± 518.04 ng·h/mL; AUC(0-∞) ([1]; rat plasma, n = 6): 949.49 ± 594.15 ng·h/mL; C max ([1]; rat plasma, n = 6): 52.61 ± 7.55 ng/mL; T max [1, 7]: less than 1 h; t 1/2 [1, 7]: less than 1.5 h |
